The target of test [1] is T1, SMARCA2-HiBiT HeLa cells (protein which is expressed from the SMARCA2 gene) (Homo sapiens, UniProt P51531).
T1 construct: protein which is expressed from the SMARCA2 and SMARCA4 genes; host or cells: HeLa (SMARCA2-HiBiT engineered line)
In words: SMARCA2 degradation assay (HiBiT-fusion HeLa cell line, 24 h, luminescence). The format is cell-based. A digest of the protocol: (§1)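 HeLa cells carrying HiBiT-tagged SMARCA2 or SMARCA4 were seeded at 8,000 cells/well, allowed to attach overnight at 37° C., then given compounds in a 10-point dilution series (typically 10 μM to 300 pM) for 24 hours at 37° C. Remaining tagged protein was read by HiBiT lytic luminescence, and DC50s came from dose-response curves.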

In test [2] the target is T2, SMARCA4-HiBiT HeLa cells (protein which is expressed from the SMARCA4 gene) (Homo sapiens, UniProt P51532).
T2 construct: protein which is expressed from the SMARCA2 and SMARCA4 genes; host or cells: HeLa (SMARCA4-HiBiT engineered line)
Description: SMARCA4 degradation assay (HiBiT-fusion HeLa cell line, 24 h, luminescence). The format is cell-based. A digest of the protocol:
as §1

A value given as a limit tells only on which side of the number the result lay.

T2 sequence (P51532 whole entry): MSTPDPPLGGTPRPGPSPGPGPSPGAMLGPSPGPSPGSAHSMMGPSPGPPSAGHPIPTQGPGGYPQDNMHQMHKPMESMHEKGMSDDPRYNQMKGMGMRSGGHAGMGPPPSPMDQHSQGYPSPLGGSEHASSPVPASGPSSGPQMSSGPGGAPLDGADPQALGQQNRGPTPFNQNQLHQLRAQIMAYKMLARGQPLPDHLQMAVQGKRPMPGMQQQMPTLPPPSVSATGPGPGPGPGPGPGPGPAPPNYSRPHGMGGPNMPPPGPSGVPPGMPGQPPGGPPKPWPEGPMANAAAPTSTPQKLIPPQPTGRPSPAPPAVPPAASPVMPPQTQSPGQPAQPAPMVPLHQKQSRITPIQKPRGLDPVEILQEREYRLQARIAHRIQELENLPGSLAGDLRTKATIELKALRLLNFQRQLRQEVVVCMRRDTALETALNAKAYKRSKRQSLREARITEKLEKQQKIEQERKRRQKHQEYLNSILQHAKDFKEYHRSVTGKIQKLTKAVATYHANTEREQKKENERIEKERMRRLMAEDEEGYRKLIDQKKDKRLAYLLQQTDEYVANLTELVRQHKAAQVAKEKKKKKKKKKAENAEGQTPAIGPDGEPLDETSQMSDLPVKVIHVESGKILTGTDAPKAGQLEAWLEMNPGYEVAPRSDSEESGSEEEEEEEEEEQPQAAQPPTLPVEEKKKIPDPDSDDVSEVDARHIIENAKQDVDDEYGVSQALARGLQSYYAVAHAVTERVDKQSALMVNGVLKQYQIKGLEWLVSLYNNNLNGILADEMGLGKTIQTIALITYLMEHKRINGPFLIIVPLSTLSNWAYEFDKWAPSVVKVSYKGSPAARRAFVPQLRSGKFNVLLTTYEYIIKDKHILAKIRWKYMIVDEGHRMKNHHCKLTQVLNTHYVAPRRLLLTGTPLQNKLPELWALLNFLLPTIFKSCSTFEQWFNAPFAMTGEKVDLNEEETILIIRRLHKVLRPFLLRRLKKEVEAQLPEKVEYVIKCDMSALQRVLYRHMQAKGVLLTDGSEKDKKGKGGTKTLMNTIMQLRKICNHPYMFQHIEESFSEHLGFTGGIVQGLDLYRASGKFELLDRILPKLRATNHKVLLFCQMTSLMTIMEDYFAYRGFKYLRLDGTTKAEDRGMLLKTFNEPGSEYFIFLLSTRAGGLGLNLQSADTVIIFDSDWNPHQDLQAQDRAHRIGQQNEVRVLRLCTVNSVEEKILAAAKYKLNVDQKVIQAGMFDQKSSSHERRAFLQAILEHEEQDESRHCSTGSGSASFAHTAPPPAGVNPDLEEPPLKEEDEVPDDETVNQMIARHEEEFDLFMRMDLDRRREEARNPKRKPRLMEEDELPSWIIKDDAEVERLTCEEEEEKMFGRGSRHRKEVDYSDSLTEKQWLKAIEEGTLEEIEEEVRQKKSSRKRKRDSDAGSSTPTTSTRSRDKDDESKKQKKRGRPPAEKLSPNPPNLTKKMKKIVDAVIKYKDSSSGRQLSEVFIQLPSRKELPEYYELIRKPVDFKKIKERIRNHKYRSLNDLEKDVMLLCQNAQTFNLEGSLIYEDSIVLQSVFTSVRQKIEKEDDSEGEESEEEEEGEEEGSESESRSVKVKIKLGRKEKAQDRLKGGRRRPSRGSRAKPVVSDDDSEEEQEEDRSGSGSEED
T1 sequence (P51531 whole entry): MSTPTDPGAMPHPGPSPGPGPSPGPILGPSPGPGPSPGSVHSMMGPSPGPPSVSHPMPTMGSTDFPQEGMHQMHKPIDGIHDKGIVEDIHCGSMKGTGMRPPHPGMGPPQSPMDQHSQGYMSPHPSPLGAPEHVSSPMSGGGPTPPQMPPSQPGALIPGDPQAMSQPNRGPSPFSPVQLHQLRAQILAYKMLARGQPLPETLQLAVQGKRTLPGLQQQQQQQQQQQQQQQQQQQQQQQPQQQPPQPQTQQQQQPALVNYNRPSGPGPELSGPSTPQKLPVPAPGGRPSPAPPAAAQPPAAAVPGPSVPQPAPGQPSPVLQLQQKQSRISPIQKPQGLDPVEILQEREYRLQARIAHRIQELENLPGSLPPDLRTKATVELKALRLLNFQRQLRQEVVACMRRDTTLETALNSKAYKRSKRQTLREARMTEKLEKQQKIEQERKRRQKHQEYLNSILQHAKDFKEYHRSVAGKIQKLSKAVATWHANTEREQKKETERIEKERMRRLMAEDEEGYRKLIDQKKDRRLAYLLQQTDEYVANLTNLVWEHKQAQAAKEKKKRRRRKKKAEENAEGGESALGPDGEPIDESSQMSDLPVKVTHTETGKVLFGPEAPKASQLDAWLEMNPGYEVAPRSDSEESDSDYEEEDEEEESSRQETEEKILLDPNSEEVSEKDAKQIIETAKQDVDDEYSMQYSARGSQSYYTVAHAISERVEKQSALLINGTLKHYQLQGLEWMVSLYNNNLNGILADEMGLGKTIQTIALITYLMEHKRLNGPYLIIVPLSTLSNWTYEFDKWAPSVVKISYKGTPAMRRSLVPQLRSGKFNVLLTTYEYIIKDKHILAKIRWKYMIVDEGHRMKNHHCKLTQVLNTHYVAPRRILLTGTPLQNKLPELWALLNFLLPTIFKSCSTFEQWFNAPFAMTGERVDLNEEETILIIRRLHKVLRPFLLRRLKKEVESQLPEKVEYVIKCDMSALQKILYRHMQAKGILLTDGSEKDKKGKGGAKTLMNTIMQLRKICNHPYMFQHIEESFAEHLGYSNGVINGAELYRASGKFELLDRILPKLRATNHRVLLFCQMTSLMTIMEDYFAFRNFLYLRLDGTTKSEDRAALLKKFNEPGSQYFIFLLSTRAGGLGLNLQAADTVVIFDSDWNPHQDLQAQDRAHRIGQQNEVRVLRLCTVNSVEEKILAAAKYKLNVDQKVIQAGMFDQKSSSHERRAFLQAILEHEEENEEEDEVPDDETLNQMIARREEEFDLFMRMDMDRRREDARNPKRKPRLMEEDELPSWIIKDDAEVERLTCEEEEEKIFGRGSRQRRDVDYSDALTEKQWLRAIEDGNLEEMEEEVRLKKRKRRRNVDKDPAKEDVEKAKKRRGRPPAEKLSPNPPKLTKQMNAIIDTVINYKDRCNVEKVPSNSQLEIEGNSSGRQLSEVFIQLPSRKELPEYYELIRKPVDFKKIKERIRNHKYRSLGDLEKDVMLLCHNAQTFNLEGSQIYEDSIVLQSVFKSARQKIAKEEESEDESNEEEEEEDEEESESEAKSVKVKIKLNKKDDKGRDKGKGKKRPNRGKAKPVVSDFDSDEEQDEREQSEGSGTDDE

In the case of `Cc1cc(C)n2ncc(C(=O)NCC#Cc3nccc(N4CCN(c5cc(-c6ccccc6O)nnc5N)CC4)n3)c2n1` [Compound P-70, N-(3-(4-(4-(3-amino-6-(2-hydroxyphenyl)pyridazin-4-yl)piperazin-1-yl)pyrimidin-2-yl)prop-2-yn-1-yl)-5,7-dimethylpyrazolo[1,5-a]pyrimidine-3-carboxamide], the half-maximal degradation concentration (DC50) in test [1] and in test [2] was 50 to 500 nM each time. Besides, the “SMARCA2 % Degradation @ 1 μM” value in test [1] (@ 1 μM) is given as “++ (++=30-70%)”. In addition, the inhibition at 1 µM in test [2] (@ 1 μM) fell in the range of 30 to 70%.

Consider `Nc1nnc(-c2ccccc2O)cc1N1CC2C1CCN2c1ccnc(C#CCNC(=O)c2cc3ncccn3n2)n1` (stereo not shown) [Compound P-18, N-(3-(4-(6-(3-amino-6-(2-hydroxyphenyl)pyridazin-4-yl)-2,6-diazabicyclo[3.2.0]heptan-2-yl)pyrimidin-2-y1)prop-2-yn-1-yl)pyrazolo[1,5-a]pyrimidine-2-carboxamide], for which the DC50 in test [1] was in the range of 500 to 5000 nM; in test [2], 50 to 500 nM. The “SMARCA2 % Degradation @ 1 μM” value in test [1] (@ 1 μM) is listed as “+ (+=<30%)”. In addition, in test [2] (@ 1 μM), the inhibition at 1 µM lay within 30 to 70%.

As to `COC[C@@H](C)NCC#Cc1nccc(N2CCCN(c3cc(-c4ccccc4O)nnc3N)CC2)n1` [Compound P-277, 0-{5-[4-(2-{3-[(R)-2-methoxy-1-methylethylamino]-1-propynyl}-4-pyrimidinyl)-1,4-diazepan-1-yl]-6-amino-3-pyridazinyl}phenol], the DC50 in test [1] and in test [2] was 50 to 500 nM throughout. Moreover, in test [1] (@ 1 μM), the “SMARCA2 % Degradation @ 1 μM” value is on record as “++ (++=30-70%)”. Moreover, in test [2] (@ 1 μM), the inhibition at 1 µM is 30 to 70%.

Take `C[C@H]1CCN1CC#Cc1nccc(N2CCCN(c3cc(-c4ccccc4O)nnc3N)CC2)n1` [Compound P-279, 0-{5-[4-(2-{3-[(S)-2-methyl-1-azetidinyl]-1-propynyl}-4-pyrimidinyl)-1,4-diazepan-1-y1]-6-amino-3-pyridazinyl}phenol]: the DC50 in test [1] and in test [2] was 50 to 500 nM in each case. The “SMARCA2 % Degradation @ 1 μM” value in test [1] (@ 1 μM) was “+++ (+++=>70%)”. This molecule came in with an inhibition at 1 µM in test [2] (@ 1 μM) of 30 to 70%.

Turning to `Nc1nnc(-c2ccccc2O)cc1N1CC2CCC(C1)N2c1ccnc(C#CCN2CCCCC2)n1` [Compound P-288, 0-(6-amino-5-{8-[2-(3-piperidino-1-propynyl)-4-pyrimidinyl]-3,8-diazabicyclo[3.2.1]oct-3-y1}-3-pyridazinyl)phenol], the DC50 in test [1] and in test [2] was 50 to 500 nM in each case. Moreover, the “SMARCA2 % Degradation @ 1 μM” value in test [1] (@ 1 μM) was “++ (++=30-70%)”. In addition, the inhibition at 1 µM in test [2] (@ 1 μM) is 30 to 70%.

Turning to `C[C@@H]1CCN(c2cc(-c3ccccc3O)nnc2N)CCN1c1cc(C#CCn2ccnc2)ncc1Cl` [Compound P-408, 0-{5-[(R)-4-{5-chloro-2-[3-(1-imidazolyl)-1-propynyl]-4-pyridyl}-5-methyl-1,4-diazepan-1-yl]-6-amino-3-pyridazinyl} phenol], the DC50 in test [1] and in test [2] was 50 to 500 nM in each case. Moreover, the “SMARCA2 % Degradation @ 1 μM” value in test [1] (1 μM) is reported as “++ (++=30-70%)”. This molecule came in with an inhibition at 1 µM in test [2] (1 μM) of 30 to 70%.

`C[C@H]1COC[C@H](C)N1CC#Cc1nccc(N2CCCN(c3cc(-c4ccccc4O)nnc3N)CC2)n1` [Compound P-305, 0-{5-[4-(2-{3-[(3S,5S)-3,5-dimethyl-4-morpholinyl]-1-propynyl}-4-pyrimidinyl)-1,4-diazepan-1-yl]-6-amino-3-pyridazinyl}phenol]: the 50% degradation concentration (DC50) in test [1] and in test [2] was 50 to 500 nM each time. In addition, the “SMARCA2 % Degradation @ 1 μM” value in test [1] (@ 1 μM) is recorded as “++ (++=30-70%)”. In addition, the inhibition at 1 µM in test [2] (@ 1 μM) lay in the range of 30 to 70%.

For `C[C@H]1CCN(c2cc(-c3ccccc3O)nnc2N)CCN1c1ccc(C#N)c(C#CCN2CC[C@H](F)C2)n1` [Compound P-411, 6-{(S)-4-[3-amino-6-(o-hydroxyphenyl)-4-pyridazinyl]-7-methyl-1,4-diazepan-1-yl}-2-{3-[(S)-3-fluoro-1-pyrrolidinyl]-1-propynyl} nicotinonitrile], the DC50 in test [1] and in test [2] was 50 to 500 nM in each case. Besides, the “SMARCA2 % Degradation @ 1 μM” value in test [1] (1 μM) is “++ (++=30-70%)”. In addition, the inhibition at 1 µM in test [2] (1 μM) was less than 30%.

As for `C[C@@H]1CCN(c2cc(-c3ccccc3O)nnc2N)CCN1c1ccnc(C#CCN2CC(F)(F)C2)n1` [Compound P-252, o-{5-[(R)-4-{2-[3-(3,3-difluoro-1-azetidinyl)-1-propynyl]-4-pyrimidinyl}-5-methyl-1,4-diazepan-1-yl]-6-amino-3-pyridazinyl}phenol], the DC50 in test [1] and in test [2] was 50 to 500 nM throughout. Also, the “SMARCA2 % Degradation @ 1 μM” value in test [1] (@ 1 μM) is “++ (++=30-70%)”. The same molecule yielded an inhibition at 1 µM in test [2] (@ 1 μM) of 30 to 70%.

For `Nc1nnc(-c2ccccc2O)cc1N1CCN(c2ccnc(C#CCNC(=O)c3cc4n(n3)CCCC4)n2)CC1` [Compound P-69, N-(3-(4-(4-(3-amino-6-(2-hydroxyphenyl)pyridazin-4-yl)piperazin-1-yl)pyrimidin-2-yl)prop-2-yn-1-yl)-4,5,6,7-tetrahydropyrazolo[1,5-a]pyridine-2-carboxamide], the DC50 was 50 to 500 nM in test [1] and less than 50 nM in test [2]. Further, the “SMARCA2 % Degradation @ 1 μM” value in test [1] (@ 1 μM) is “++ (++=30-70%)”. The molecule also displayed an inhibition at 1 µM in test [2] (@ 1 μM) of 30 to 70%.

For the molecule `C[C@@H]1CCN(c2cc(-c3ccccc3O)nnc2N)CCN1c1ccnc(C#CCN2[C@H](C)C[C@H]2C)n1` [Compound P-264, o-{5-[(R)-4-(2-{3-[(2R,4R)-2,4-dimethyl-1-azetidinyl]-1-propynyl}-4-pyrimidinyl)-5-methyl-1,4-diazepan-1-yl]-6-amino-3-pyridazinyl}phenol], the DC50 in test [1] and in test [2] was less than 50 nM in each case. Further, the “SMARCA2 % Degradation @ 1 μM” value in test [1] (@ 1 μM) is “++ (++=30-70%)”. For the same molecule, the inhibition at 1 µM in test [2] (@ 1 μM) fell in the range of 30 to 70%.

As to `Nc1nnc(-c2ccccc2O)cc1N1CCCN(c2ccnc(C#CCN3CCN(C(=O)C4CC4)CC3)n2)CC1` [Compound P-365, {4-[3-(4-{4-[3-amino-6-(o-hydroxyphenyl)-4-pyridaziny1]-1,4-diazepan-1-yl}-2-pyrimidinyl)-2-propynyl]-1-piperazinyl}cyclopropylmethanone], the DC50 in test [1] and in test [2] was 500 to 5000 nM in each case. Besides, the “SMARCA2 % Degradation @ 1 μM” value in test [1] (@ 1 μM) is recorded as “++ (++=30-70%)”. The inhibition at 1 µM in test [2] (@ 1 μM) lay in the range of 30 to 70%.

Turning to `CC1CN(c2ccnc(C#CCNC(=O)c3cc4ncccn4n3)n2)CCCN1c1cc(-c2ccccc2O)nnc1N` (stereo not shown) [Compound P-29, N-(3-(4-(4-(3-amino-6-(2-hydroxyphenyl)pyridazin-4-yl)-3-methyl-1,4-diazepan-1-yl)pyrimidin-2-yl)prop-2-yn-1-yl)pyrazolo[1,5-a]pyrimidine-2-carboxamide], the DC50 in test [1] and in test [2] was 50 to 500 nM in each case. In addition, the “SMARCA2 % Degradation @ 1 μM” value in test [1] (@ 1 μM) is on record as “+++ (+++=>70%)”. Further, the inhibition at 1 µM in test [2] (@ 1 μM) was greater than 70%.

With `CC(C)(C)OC(=O)NCC#Cc1nccc(NC2CN(c3cc(-c4ccccc4O)nnc3N)C2)n1` [Compound P-307, 4-(3-{2-[3-(tert-butoxycarbonylamino)-1-propynyl]-4-pyrimidinylamino}-1-azetidinyl)-6-(o-hydroxyphenyl)-3-pyridazinamine], the DC50 in test [1] and in test [2] was 50 to 500 nM in each case. In addition, the “SMARCA2 % Degradation @ 1 μM” value in test [1] (@ 1 μM) is “++ (++=30-70%)”. Moreover, the inhibition at 1 µM in test [2] (@ 1 μM) was 30 to 70%.

As to `Nc1nnc(-c2ccccc2O)cc1N1CCCN(c2ccnc(C#CCn3ccnc3)n2)CC1` [Compound P-145, 2-(5-(4-(2-(3-(1H-imidazol-1-yl)prop-1-yn-1-yl)pyrimidin-4-yl)-1,4-diazepan-1-yl)-6-aminopyridazin-3-yl)phenol], the DC50 in test [1] and in test [2] was 50 to 500 nM each time. Further, the “SMARCA2 % Degradation @ 1 μM” value in test [1] (@ 1 μM) is reported as “+++ (+++=>70%)”. The same molecule gave an inhibition at 1 µM in test [2] (@ 1 μM) of 30 to 70%.

For the molecule `CC(C#Cc1nccc(N2C3CCC2CN(c2cc(-c4ccccc4O)nnc2N)C3)n1)NC(=O)c1cc2ncccn2n1` (stereo not shown) [Compound P-97, N-(4-(4-(3-(3-amino-6-(2-hydroxyphenyl)pyridazin-4-yl)-3,8-diazabicyclo[3.2.1]octan-8-yl)pyrimidin-2-yl)but-3-yn-2-yl)pyrazolo|1,5-a|pyrimidine-2-carboxamide], the DC50 in test [1] and in test [2] was 50 to 500 nM each time. Further, the “SMARCA2 % Degradation @ 1 μM” value in test [1] (@ 1 μM) was “++ (++=30-70%)”. Also, the inhibition at 1 µM in test [2] (@ 1 μM) lay within 30 to 70%.

For `C[C@@H]1CCN(c2cc(-c3ccccc3O)nnc2N)CCN1c1ccnc(C#CCOCC2CC(N(C)C)C2)n1` (stereo partly drawn) [Compound P-251, o-{5-[(R)-4-[2-(3-{[3-(dimethylamino)cyclobutyl]methoxy}-1-propynyl)-4-pyrimidinyl]-5-methyl-1,4-diazepan-1-yl]-6-amino-3-pyridazinyl}phenol], the DC50 in test [1] and in test [2] was 50 to 500 nM in each case. Besides, the “SMARCA2 % Degradation @ 1 μM” value in test [1] (@ 1 μM) is listed as “+++ (+++=>70%)”. This molecule displayed an inhibition at 1 µM in test [2] (@ 1 μM) of 30 to 70%.

For `Nc1nnc(-c2ccccc2O)cc1N1CCN(c2ccnc(C#CCNC(=O)c3cccc4ccoc34)n2)CC1` [Compound P-63, N-(3-(4-(4-(3-amino-6-(2-hydroxyphenyl)pyridazin-4-yl)piperazin-1-yl)pyrimidin-2-yl)prop-2-yn-1-yl)benzofuran-7-carboxamide], the DC50 in test [1] and in test [2] was 50 to 500 nM in each case. Moreover, in test [1] (@ 1 μM), the “SMARCA2 % Degradation @ 1 μM” value was “++ (++=30-70%)”. In test [2] (@ 1 μM), this molecule returned an inhibition at 1 µM of 30 to 70%.

As for `CNCC#Cc1nccc(N2CCN(c3cc(-c4ccccc4O)nnc3N)[C@@H](C)C2)n1` [Compound P-292, 0-{5-[(S)-2-methyl-4-{2-[3-(methylamino)-1-propynyl]-4-pyrimidinyl}-1-pipcrazinyl]-6-amino-3-pyridaziny1} phenol], the half-maximal degradation concentration (DC50) in test [1] was 50 to 500 nM; in test [2], less than 50 nM. Moreover, in test [1] (@ 1 μM), the “SMARCA2 % Degradation @ 1 μM” value is given as “++ (++=30-70%)”. Further, the inhibition at 1 µM in test [2] (@ 1 μM) is less than 30%.
